The source of these data is patent US20240122930A1, “INTEGRIN INHIBITORS AND USES THEREOF IN COMBINATION WITH OTHER AGENTS” (Pliant Therapeutics, Inc., priority 2022, published 2024).

The target of series [1] is recombinant human integrin αVβ6 (Homo sapiens, UniProt P06756+P18564). Put plainly: Solid phase integrin αVβ6 binding assay. The conditions noted are these: TGFβ1 LAP, values presented in four ranges, read-out: αvβ6 Inhibition IC50 (nM)-range. As to the method: Microplates were coated with recombinant human integrin αVβ6 (2 μg/mL) in PBS (100 μL/well 250 C, overnight). The coating solution was removed, washed with wash buffer (0.05% Tween 20; 0.5 mM MnCl2; in 1×TBS). The plate was blocked with 200 μL/well of Block Buffer (1% BSA; 5% sucrose; 0.5 mM MnCl2; in 1×TBS) at 370 C for 2 h. Dilutions of testing compounds and recombinant TGFβ1 LAP (0.67 μg/mL) in binding buffer (0.05% BSA; 2.5% sucrose; 0.5 mM MnCl2; in 1×TBS) were added. The plate was incubated for 2 hours at 250 C, washed, and incubated for 1 hour with Biotin-Anti-hLAP. Bound antibody was detected by peroxidase-conjugated streptavidin. The IC50 values for testing compounds were calculated by a four-parameter logistic regression.
Chain of recombinant human integrin αVβ6 (P06756 31-992 limits assumed): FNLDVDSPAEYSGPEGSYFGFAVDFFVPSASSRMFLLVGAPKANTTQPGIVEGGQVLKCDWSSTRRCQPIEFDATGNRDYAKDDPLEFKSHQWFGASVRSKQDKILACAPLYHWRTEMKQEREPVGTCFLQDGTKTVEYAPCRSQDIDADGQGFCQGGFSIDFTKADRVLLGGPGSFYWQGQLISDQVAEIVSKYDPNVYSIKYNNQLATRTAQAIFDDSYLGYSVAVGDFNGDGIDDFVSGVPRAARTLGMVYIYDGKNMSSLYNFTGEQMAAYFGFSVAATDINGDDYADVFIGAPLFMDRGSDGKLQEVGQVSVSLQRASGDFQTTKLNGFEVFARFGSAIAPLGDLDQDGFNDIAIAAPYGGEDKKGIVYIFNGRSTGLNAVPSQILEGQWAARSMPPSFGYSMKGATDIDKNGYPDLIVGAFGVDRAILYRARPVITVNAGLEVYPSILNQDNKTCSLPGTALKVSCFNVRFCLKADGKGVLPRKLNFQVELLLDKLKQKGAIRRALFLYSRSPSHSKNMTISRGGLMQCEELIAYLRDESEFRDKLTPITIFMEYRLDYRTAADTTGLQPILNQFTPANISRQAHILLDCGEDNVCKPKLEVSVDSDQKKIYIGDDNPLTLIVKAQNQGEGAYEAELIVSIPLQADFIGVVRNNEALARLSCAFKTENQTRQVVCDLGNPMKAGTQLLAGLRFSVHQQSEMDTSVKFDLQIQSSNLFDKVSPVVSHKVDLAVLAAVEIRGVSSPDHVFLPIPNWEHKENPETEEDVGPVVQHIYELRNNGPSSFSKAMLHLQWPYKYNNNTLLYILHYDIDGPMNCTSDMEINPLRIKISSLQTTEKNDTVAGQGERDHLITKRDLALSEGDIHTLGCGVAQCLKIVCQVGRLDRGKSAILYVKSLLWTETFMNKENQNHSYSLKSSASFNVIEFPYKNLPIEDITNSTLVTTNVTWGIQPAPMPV
Chain of recombinant human integrin αVβ6 (P18564 22-707 limits assumed): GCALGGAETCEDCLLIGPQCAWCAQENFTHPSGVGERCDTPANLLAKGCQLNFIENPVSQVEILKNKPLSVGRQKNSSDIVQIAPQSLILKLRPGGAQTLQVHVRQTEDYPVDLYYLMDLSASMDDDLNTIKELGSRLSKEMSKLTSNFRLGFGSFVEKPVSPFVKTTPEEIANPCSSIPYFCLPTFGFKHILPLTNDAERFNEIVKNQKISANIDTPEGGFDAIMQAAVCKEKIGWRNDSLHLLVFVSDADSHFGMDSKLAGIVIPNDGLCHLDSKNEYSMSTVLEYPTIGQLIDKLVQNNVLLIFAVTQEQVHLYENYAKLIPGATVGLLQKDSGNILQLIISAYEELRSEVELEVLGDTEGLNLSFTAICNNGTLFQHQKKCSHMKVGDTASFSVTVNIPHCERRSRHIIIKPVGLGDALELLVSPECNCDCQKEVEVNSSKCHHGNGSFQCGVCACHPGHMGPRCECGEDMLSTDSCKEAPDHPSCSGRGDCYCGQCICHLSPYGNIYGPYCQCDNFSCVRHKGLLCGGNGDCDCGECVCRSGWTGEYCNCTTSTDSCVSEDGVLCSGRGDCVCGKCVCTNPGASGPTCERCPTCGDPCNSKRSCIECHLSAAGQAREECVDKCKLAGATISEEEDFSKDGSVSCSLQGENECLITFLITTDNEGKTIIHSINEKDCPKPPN
The compounds tested were compound samples prepared according to procedures described in the Synthetic Examples section, with the stereochemical purity as indicated in the Examples.
A third series of exemplary compounds was selected for testing in the solid phase integrin αVβ6 binding assay. The compounds tested were compound samples prepared according to procedures described in the Synthetic Examples section, with the stereochemical purity as indicated in the Examples. […] Bound antibody was detected by peroxidase-conjugated streptavidin. The IC50 values for testing compounds were calculated by a four-parameter logistic regression.

The test system of series [2] is explanted human lung tissue from patients with idiopathic pulmonary fibrosis. Put plainly: Fibrosis-related gene expression (nCounter Fibrosis Panel) in precision cut lung slices. The format is cell-based. An excerpt: Briefly, tissue samples from patients with IPF were acquired at the time of lung transplantation. […] Treated slices were lysed in mRNA-compatible buffer for gene expression analysis. For this study, the lysate from n=6 slices per treatment per lung were pooled for analysis using the nCounter Fibrosis Panel (Nanostring) on the nCounter Max analyzer (Nanostring). This commercially available panel of 770 genes includes genes related to initial tissue damage response, chronic inflammation, proliferation of pro-fibrotic cells, and tissue modification leading to fibrotic disease. Technical quality control and normalization of raw Nanostring mRNA count data was performed using an R framework developed by Bhattacharya et al. (Bhattacharya A. et al., Brief Bioinform. 2021 May 20; 22(3):bbaa163; herein incorporated by reference in its entirety). The R packages limma (see URL www.bioconductor.org/packages/release/bioc/html/limma.html, which is incorporated herein by reference in its entirety) and voom (Law, C.

For a further series, the system named is COL1A1 expression. Put plainly: Precision cut lung slices from human IPF explants, COL1A1 expression. Particulars: human IPF PCLS; for expression of COL1A1: 7 days, treatment alone: nintedanib 75 nM, pirfenidone 50 μM. Format: cell-based. An excerpt:
Explanted lung tissue was obtained from human IPF subjects and inflated with agarose as described in the preceding examples. Biopsy cores were obtained from the agarose-inflated lung tissue. The biopsy cores were subjected to precision slicing to obtain several hundred μm thick. Individual slices were distributed in a multiwell culture plate and cultured for […] under control (DMSO) and test compound conditions. The viability of the slices over the course of culturing was confirmed by WST-1 assay of mitochondrial activity.
PCLS from 5-7 idiopathic pulmonary fibrosis (IPF) lung tissue samples were cultured for seven days with one of: DMSO; Compound 5 at 200 nM; nintedanib at 75 nM; pirfenidone at 50 μM; a combination of Compound 5 at 200 nM and nintedanib at 75 nM; a combination of Compound 5 at 200 nM and pirfenidone at 50 μM; or an ALK5 inhibitor at 1 μM. […] FIG. 6D is a bar graph showing relative expression of COL1A1 in precision cut lung slices (PCLS) from idiopathic pulmonary fibrosis (IPF) lung tissue upon exposure to Compound 5, clinical standard of care compounds nintedanib (Nin) and pirfenidone (Pirf), and an ALK5 inhibitor, all versus DMSO control.
PCLS from a single IPF lung tissue sample were cultured for seven days with Compound 5 at concentrations of 200 pM, 2 nM, 60 nM, 200 nM, and 1 μM, along with 0.1% DMSO control and an ALK5 inhibitor at 1 μM. […] COL1A1 expression is also graphed for the PCLS in the presence of 0.1% DMSO control, and an ALK5 inhibitor at 1 μM.

The subject of series [3] is lung Col1a1 expression. Nature of the series: Precision cut lung slices, chronic bleomycin exposure, versus and with nintedanib and pirfenidone. Format: cell-based, mice (C57BL/6). Particulars: chronic bleomycin PCLS, 7 days culture, single agents. As to the method: Mice (C57BL/6) were administered 3 U/kg of bleomycin (Teva Pharmaceuticals; North Wales, PA) on Day 0 and 1 U/kg of bleomycin on days 14, 28, 42 and 56 via oropharyngeal aspiration while under anesthesia. At day 70, 14 days following the final bleomycin insult, precision cut lung slices were obtained. […] The lobes were then subjected to precision slicing to obtain samples for culture using a microtome (Compresstome VF-300-OZ, Precisionary; Greenville, NC). Individual slices were distributed in a multiwell culture plate and cultured for 7 days under control (DMSO) and test compound conditions. The viability of the slices over the course of culturing was confirmed by WST-1 assay of mitochondrial activity. During the culture period, slices in the control group were treated with DMSO and slices in the test group were treated with a DMSO solution of one of: […]

Series [4] has as its system Type I Collagen gene Col1a1 expression. Put plainly: Precision cut lung slices, acute bleomycin exposure, Col1a1 expression. Particulars: acute bleomycin PCLS, 3 days culture; integrin inhibitors at IC50 for TGF-beta activation, pan-αV and ALK5 inhibitors at 10× IC50. The format is cell-based, mice (C57BL/6).
Experimental: Mice (C57BL/6) were administered 3 U/kg of bleomycin (Teva Pharmaceuticals; North Wales, PA) on day 0 via oropharyngeal aspiration while under anesthesia. On day 14, precision cut lung slices were obtained. Following euthanization, 2% low gelling temp agarose was injected into the mouse lungs via the trachea. […] The lobes were then subjected to precision slicing to obtain samples for culture using a microtome (Compresstome VF-300-OZ, Precisionary; Greenville, NC). Individual slices were distributed in a multiwell culture plate and cultured for 3 days under control (DMSO) and test compound conditions. The viability of the slices over the course of culturing was confirmed by WST-1 assay of mitochondrial activity.
In series [5] the test system is lung Col1a1 expression. Put plainly: Precision cut lung slices, chronic bleomycin exposure, Col1a1 expression. The format is cell-based, mice (C57BL/6). The conditions noted are these: chronic bleomycin PCLS, 7 days culture. As to the method:
Mice (C57BL/6) were administered 3 U/kg of bleomycin (Teva Pharmaceuticals; North Wales, PA) on Day 0 and 1 U/kg of bleomycin on days 14, 28, 42 and 56 via oropharyngeal aspiration while under anesthesia. At day 70, 14 days after the final bleomycin insult, precision cut lung slices were obtained. […] The lobes were then subjected to precision slicing to obtain samples for culture using a microtome (Compresstome VF-300-OZ, Precisionary; Greenville, NC). Individual slices were distributed in a multiwell culture plate and cultured for 7 days under control (DMSO) and test compound conditions. The viability of the slices over the course of culturing was confirmed by WST-1 assay of mitochondrial activity. […] Compound 5; and the small molecule ALK5 inhibitor. […] Compound 5 was run at approximate IC50 for inhibition of TGF-beta activation by αVβ6.

For series [6], the system named is participants with idiopathic pulmonary fibrosis (IPF). Particulars: FIG. 26, histograms from left to right; from USPI or literature; cited from earlier work.
[7] abbreviates: single treatment, adj. p-value <0.05.

Entries after “also recorded” stand apart in the source; their conditions may differ.

By IC50 is commonly meant the concentration needed to halve the response being measured. Consider `COCCN(CCCCc1ccc2c(n1)NCCC2)CCC(Nc1ncnc2cnccc12)C(=O)O` (stereo not shown) [Compound 17, 4-((2-methoxyethyl)(4-(5,6,7,8-tetrahydro-1,8-naphthyridin-2-yl)butyl)amino)-2-(pyrido[3,4-d]pyrimidin-4-ylamino)butanoic acid], for which the half-inhibitory concentration (IC50) in series [1] is < 50 nM.

For `Cc1ccc(=O)n(-c2ccccc2)c1` [pirfenidone, 5-methyl-1phenyl-2-1(H)-pyridone, reference compound], in series [2] (FIG. 24 Venn region F: altered by Compound 5 or pirfenidone alone, but not by Compound 5 in combination with pirfenidone), the “Genes Down-regulated with Compound 5 and Pirfenidone Alone or in Combination, region F” value is listed as “CXCR4; also recorded: PECAM1”. For the same molecule, in series [2] (FIG. 24 Venn region G: only altered by pirfenidone in the absence of Compound 5), the “Genes Up-regulated with Compound 5 and Pirfenidone Alone or in Combination, region G” value is “COL7A1 and MMP7 and PTGS2”. Also, the “logFC KNG1” value in series [2] (setting [7]) is −1.1. In the series on COL1A1 expression, the “expression of COL1A1” value is reported as “did not significantly reduce”. Further, the “lung Col1a1 expression vs DMSO vehicle control slices” value in the series on lung Col1a1 expression [3] is listed as “slight increase”.

Consider `Cc1cccc(-c2n[nH]cc2-c2ccc(F)c(-c3cnn(CCO)c3)c2)n1` [small molecule ALK5 inhibitor, 4-[2-Fluoro-5-[3-(6-methyl-2-pyridinyl)-1H-pyrazol-4-yl]phenyl]-1H-pyrazole-1-ethanol, reference compound], for which the “Type I Collagen gene Col1a1 expression, normalized to DMSO control slices” value in series [4] is “greatest decrease”. The “lung Col1a1 expression, normalized to DMSO control slices” value is listed as “greatest decrease” in the series with lung Col1a1 expression [5] and “decrease in lung Col1a1 expression” in the series on COL1A1 expression (3 days, 3G9 ≥400 ng/mL, Compound 5 179 nM, ALK5 inhibitor 1 μM). The “lung Col1a1 expression vs DMSO vehicle control slices” value in the series on lung Col1a1 expression [3] is given as “substantial, statistically significant (p<0.0001 vs vehicle) decrease”.

`[O-][S+]1CCc2nc(N3CCC(c4ncc(Cl)cn4)CC3)nc(NC3(CO)CCC3)c21` (stereo not shown) [BI 1015550]: the “% Incidence of Diarrhea in IPF Clinical Trials” value in series [6] is 17%.

On to `COC(=O)c1ccc2c(c1)NC(=O)/C2=C(\Nc1ccc(N(C)C(=O)CN2CCN(C)CC2)cc1)c1ccccc1` [nintedanib, 3-Z-[1-(4-(N-((4-methyl-piperazin-1-yl)-methylcarbonyl)-N-methyl-amino)-anilino)-1-phenyl-methylene]-6-methoxycarbonyl-2-indolinone, reference compound], for which the “Genes up-regulated, Venn region G (FIG. 24)” value in series [2] (IPF precision cut lung slices, 7 days, only altered by nintedanib in the absence of Compound 5) was “ACTA2 and CCL19 and COL6A5 and ELN and IGF1 and PYGM”. In series [2] (setting [7]), the “logFC CYP2J2” value was found to be 1.025. In addition, the “expression of COL1A1” value in the series with COL1A1 expression is given as “did not significantly reduce”. Besides, the “lung Col1a1 expression vs DMSO vehicle control slices” value in the series with lung Col1a1 expression [3] is “slight increase”.

For the molecule `CC(C)(C)c1cc(Br)cc([C@H](CC(=O)O)NC(=O)CNC(=O)c2cc(O)cc(NC3=NCC(O)CN3)c2)c1` (stereo partly drawn) [second pan-αV small molecule inhibitor, (3S)—N-[3-hydroxy-5-[(1,4,5,6-tetrahydro-5-hydroxy-2-pyrimidinyl)amino]benzoyl]glycyl-3-[3-bromo-5-(1,1-dimethylethyl)phenyl]-β-alanine], in series [4], the “Type I Collagen gene Col1a1 expression, normalized to DMSO control slices” value is listed as “decreased Type I Collagen gene Col1a1 expression comparably”.
